Test results taken from patent US8993587B2, “Combination of syrosingopine and mitochondrial inhibitors for the treatment of cancer and immunosuppression” (Universitat Basel, priority 2011, dated 2015).
Counter-ions that a name gives are not always drawn. Like-named read-outs stand apart in the source and are kept apart here.

Experiments:
mouse mast cell line 6.5 [1] = assay: AlamarBlue cell proliferation assay, mouse mast cell line 6.5; type: cell-based
Description: (§1) AlamarBlue conversion cell proliferation assay. […] All data points were performed in tripliclate.

[2] = system: murine 6.5 cells (inner mitochondrial membrane potential); assay: Mitochondrial membrane potential by TMRM fluorescence assay; type: cell-based, mouse; conditions: TMRM 100 nM 20 min, control peak 403, syrosingopine pre-incubation 4 h (highest amount), FCCP pre-treatment 1 h (FIG. 11)
Description: Murine 6.5 cells were treated with TMRM (panels 1-6), and in addition pre-incubated with FCCP (panel 2), syrosingopine at 0.1 μM (panel 3), 0.5 μM (panel 4), 2 μM (panel 5) or at 5 μM (panel 6) and fluorescence intensity was measured. Thin lines: fluorescence intensity of control cells or FCCP-treated cells (panel 2). Heavy lines indicate cells pre-incubated additionally with syrosingopine (panels 3-6). X-axis indicates fluorescence intensity, Y-axis indicates relative cell numbers.
Murine 6.5 cells were treated for 20 min with the potentiometric fluorescent dye TMRM (tetramethylrhodamine methyl ester, AbD Serotec, 100 nM) and the fluorescence intensity was measured at 575 nm emission after excitation at 488 nm using a flow cytometer (CellLabQuanta, Beckman Coulter). This dye accumulates in the mitochondrial matrix when the inner membrane potential is more positive outside due to the extrusion of protons. […] The effect of syrosingopine was assessed by pre-incubating cells with increasing concentrations of syrosingopine for 4 h as indicated, followed by TMRM staining.

cancer test cell lines = assay: Interaction of rauwolfia-related compounds with metformin; type: cell-based
Source text: 6.5 cells show many features of oncogenic transformation such as loss of growth-factor (IL3) dependence and signaling pathway addiction. […]. These cells display exquisite sensitivity to many clinical drugs. […].

OPM2 cells [3] = assay: AlamarBlue cell proliferation assay, OPM2; type: cell-based, human; conditions: for growth inhibition, combined versus each compound singly: syrosingopine titration, metformin 5 mM, 3 days (FIG. 1B)
Description: as §1

K562 cells = assay: AlamarBlue cell proliferation assay, K562; type: cell-based, human; conditions: syrosingopine titration, metformin 5 mM, 3 days (FIG. 1E)
Description: as §1

[4] = system: human peripheral blood leukocytes; assay: Phytohaemagglutinin-stimulated T cell proliferation; type: cell-based; conditions: PHA 10 μg/ml; day 3; syrosingopine titration with or without metformin 4 mM (FIG. 7, right)
Description: Human peripheral blood leukocytes were cultured in presence or absence of phytohaemagglutinin.
Normal human buffy coat cells were obtained from a local blood donation center in accordance with the ethical guidelines. 80 ml of blood was diluted with 200 ml of Iscove's medium and overlayed on a Ficoll gradient. The gradient was centrifuged at 1400×g for 5 minutes to separate the leukocyte fraction from erythrocytes. Cells were plated on coated tissue culture dishes for 1 hour to remove adherent cells, and the remaining suspension cells were collected by centrifugation and counted with a haemocytometer. 50,000 cells were seeded per well in 96-well dishes and compounds were added according to the various treatment regimes to a final medium volume of 150 μl. For stimulation, phytohemagglutinin was added to a final concentration of 10 μg/ml. At day 3, proliferation was determined by AlamarBlue assay.

Jurkat cells = assay: AlamarBlue cell proliferation assay, Jurkat; type: cell-based, human; conditions: syrosingopine titration, metformin 5 mM, 3 days (FIG. 1D)
Description: as §1

OPM2 cells [5] = assay: Apoptosis assay (annexin V / propidium iodide FACS), OPM2; type: cell-based, human; conditions: 5 μM syrosingopine, 2 mM metformin, singly or combined, 3 days (FIG. 3)
Description: (§2) OPM2 and RPM18226 cells were seeded at a density of 100,000 cells/5 ml medium with addition of compounds. […] RPM18226: 2 μM syrosingopine (S), 1 mM metformin (M). […] Annexin V is an apoptotic marker and was detected using a FITC-coupled antibody on the FL1-channel. Propidium iodide (PI) exclusion staining for vital cells was detected simultaneously on the FL3-channel. For each measurement, the PI and annexin V negative cells represent the viable cell population (white bars). Early apoptotic cells are PI-negative, annexin V-positive (hatched bars) and late apoptotic cells are PI-positive, annexin V-positive (black bars). Bars are plotted on the Y-axis as a percentage of the total cell population.
(§3) Apoptosis was determined by Annexin V-FITC (Invitrogen) and propidium iodide counter-staining, and cells were analysed by FACS to distinguish between viable/early apoptotic/late apoptotic cell sub-populations. Cells were seeded at a density of 100,000 cells/5 ml medium with addition of compounds as indicated. 500 μl of culture was harvested after 3 days and the cells were washed and stained with PI/Annexin V before FACs analysis.

RPMI8226 cells [6] = assay: AlamarBlue cell proliferation assay, RPMI8226; type: cell-based, human; conditions: syrosingopine titration, metformin 5 mM, 3 days
Description: as §1

RPMI8226 cells [7] = assay: Apoptosis assay (annexin V / propidium iodide FACS), RPMI8226; type: cell-based, human; conditions: 2 μM syrosingopine, 1 mM metformin, singly or combined, 3 days (FIG. 3)
Description: as §2, §3

[8] = system: 6.5 cell tumors in DBA mice; conditions: mouse, in vivo
Description: Drug treatment commenced when tumors reached 100 mm^2 in size. Mice were separated into treatment groups and injected intra-peritoneally with PBS (horizontal bars), syrosingopine (S, filled diamonds, 2 mg/kg body weight), metformin (M, filled triangles, 250 mg/kg body weight) and metformin plus syrosingopine (S+M, crossed squares) daily for 15 days. Mice were sacrificed when tumor size became excessive (day 15) and tumors were dissected for measurement. (A) Chart showing tumor area (in mm^2) measured over the course of the treatment, d=days. (B) Mean body weight (g) of the mice at the time of sacrifice. Figures (n) above each bar indicate the number of mice per treatment group.
4×10^56.5 cells were injected in 150 μl of PBS into the flanks of immuno-compatible DBA mice. Tumor progression was monitored and treatment was started when tumor area reached 100 mm^2 in size. Mice were injected intra-peritoneally daily with metformin (250 mg/kg body weight), syrosingopine (2 mg/kg body weight) or combined for 15 days before being sacrificed for tumor tissue measurements.

HL60 cells = type: cell-based, human; conditions: oligomycin at a concentration below 1 nM, 3 days (FIG. 10B)
Description: as §1

mouse mast cell line 6.5 [9] = system: mouse mast cell line 6.5
[10] = 6.5 cells, agent at fixed, non- or minimally toxic concentration (FIG. 8) with increasing syrosingopine, 3 days

`O=C([O-])CC(=O)[O-].[Na+].[Na+]` [sodium malonate, Sodium malonate] was tested, and the “synergistic killing with syrosingopine” value (mouse mast cell line 6.5 [1]; [10]) was “Synergistic killing”.

`N#CC(C#N)=NNc1ccc(OC(F)(F)F)cc1` [FCCP, Carbonyl cyanide-p-trifluoromethoxyphenylhydrazone] was tested, and the “synergistic killing with syrosingopine” value (mouse mast cell line 6.5 [1]) was “induced synergistic killing” and the TMRM fluorescence peak [2] was 42 arbitrary units.

In the case of Stavudine, the “synergistic killing with syrosingopine” value (mouse mast cell line 6.5 [1]; [10]) is reported as “induced synergistic killing”.

For `CCCCCC[C@H]1C(=O)O[C@H](C)[C@H](NC(=O)c2cccc(NC=O)c2O)C(=O)O[C@@H](C)[C@@H]1OC(=O)CC(C)C` [antimycin A, Antimycin A], the “synergistic killing with syrosingopine” value (mouse mast cell line 6.5 [1]) was “Synergistic killing”.

`COC(=O)[C@H]1[C@H]2C[C@@H]3c4[nH]c5cc(OC)ccc5c4CCN3C[C@H]2C[C@@H](OC(=O)c2cc(OC)c(OC)c(OC)c2)[C@@H]1OC` [reserpine] was tested, and the interaction with metformin (cancer test cell lines) was “do not show significant interaction”, the interaction with metformin (OPM2 cells [3]; OPM2 cells, reserpine over a range of concentrations, metformin 5 mM (FIG. 4)) was “No interaction” and the interaction with metformin (mouse mast cell line 6.5 [1]; 6.5 cells, reserpine over a range of concentrations, metformin 5 mM (FIG. 4)) was “No interaction”.

With `COC(=O)[C@H]1[C@H]2C[C@H]3c4[nH]c5ccccc5c4CCN3C[C@H]2CC[C@@H]1O` [rauwolscine HCl] the interaction with metformin (cancer test cell lines) was “do not show significant interaction”.

With `COC(=O)[C@@H]1[C@H]2C[C@H]3c4[nH]c5ccccc5c4CCN3C[C@@H]2CC[C@@H]1O` [yohimbine HCl] the interaction with metformin (cancer test cell lines) was “do not show significant interaction”.

In the case of `CCOC(=O)Oc1c(OC)cc(C(=O)O[C@@H]2C[C@@H]3CN4CCc5c([nH]c6cc(OC)ccc56)[C@H]4C[C@@H]3[C@H](C(=O)OC)[C@H]2OC)cc1OC` [syrosingopine], the “growth inhibition, combined versus each compound singly” value (K562 cells) is reported as “only a marginal effect”, the “inhibition of PHA-stimulated proliferation” value [4] is reported as “considerably less so” and the “growth inhibition, combined versus each compound singly” value (Jurkat cells) is reported as “only a marginal effect”. The “apoptotic induction (annexin V / PI)” value (OPM2 cells [5]) was “No apoptotic induction”, the “growth inhibition, combined versus each compound singly” value (RPMI8226 cells [6]) was “only a marginal effect” and the “growth inhibition, combined versus each compound singly” value (OPM2 cells [3]; OPM2) was “only a marginal effect”. The “inhibition of growth, syrosingopine alone” value (mouse mast cell line 6.5 [1]; 6.5 cells, syrosingopine titration without metformin, 3 days (FIG. 1A)) was “virtually non-inhibitory”, the TMRM fluorescence peak [2] was 955 arbitrary units and the “apoptotic induction (annexin V / PI)” value (RPMI8226 cells [7]) was “No apoptotic induction”. The “signs of overt toxicity” value ([8]; DBA) was “no significant difference in body weight between the treatment groups (FIG. 5B) or any signs of overt toxicity” and the “body weight at sacrifice” value [8] was “no significant difference in body weight”.

`N=C(N)NC(=N)NCCc1ccccc1` [phenformin, 1-(diaminomethylidene)-2-(2-phenylethyl)guanidine] was tested, and the “growth inhibition, phenformin alone” value (mouse mast cell line 6.5 [1]; 6.5 cells, concentrations up to 10 μM, 3 days (FIG. 6, left)) was “no growth inhibition” and the synergy with syrosingopine (mouse mast cell line 6.5 [1]; 6.5 cells, phenformin 10 μM combined with increasing concentrations of syrosingopine, 3 days (FIG. 6, right)) was “strong synergistic effect”.

With `CC[C@@H]1/C=C/C=C/C[C@H](C)C(O)[C@](C)(O)C(=O)[C@H](C)[C@@H](O)[C@H](C)C(=O)[C@H](C)[C@@H](O)[C@H](C)/C=C/C(=O)O[C@H]2[C@@H](C)[C@@H](CC1)O[C@@]1(CC[C@@H](C)[C@@H](C[C@H](C)O)O1)[C@@H]2C` (stereo partly drawn) [oligomycin, Oligomycin] the “killing in combination with syrosingopine” value (HL60 cells) was “kills human cancer lines”, the “killing in combination with syrosingopine” value (OPM2 cells [3]; OPM2, oligomycin at a concentration below 1 nM, 3 days (FIG. 10C)) was “kills human cancer lines” and the “toxicity of the mitochondrial inhibitor alone” value (mouse mast cell line 6.5 [1]; 6.5 cells, absence of syrosingopine, concentrations employed for synergistic killing, 3 days (FIG. 9)) was “without toxic effect”. For the same compound, the “synergistic killing with syrosingopine” value (mouse mast cell line 6.5 [1]; [10]) was “induced synergistic cell killing”.

For `COC(=O)[C@H]1[C@H]2C[C@H]3c4[nH]c5ccccc5c4CCN3C[C@@H]2CC[C@@H]1O.Cl` [corynanthine HCl], the interaction with metformin (cancer test cell lines) was “do not show significant interaction”.

For `COc1ccc2c3c([nH]c2c1)[C@H]1C[C@H]2[C@H](C[C@@H](O)[C@H](OC)[C@H]2C(=O)O)CN1CC3` [reserpinnic acid], the interaction with metformin (cancer test cell lines) was “do not show significant interaction”.

With `N#CC(=C(/N)Sc1ccccc1N)/C(C#N)=C(\N)Sc1ccccc1N` [U0126] the “sensitivity of 6.5 cells to inhibitor” value (mouse mast cell line 6.5 [9]) was “sensitive to nanomolar concentrations”.

`O=C(O)[C@@H]1[C@H]2C[C@H]3c4[nH]c5ccccc5c4CCN3C[C@@H]2CC[C@@H]1O` [yohimbinic acid] was tested, and the interaction with metformin (cancer test cell lines) was “do not show significant interaction”.

In the case of `COC(=O)[C@H]1[C@H]2C[C@@H]3c4[nH]c5cc(OC)ccc5c4CCN3C[C@H]2C[C@@H](OC(=O)/C=C/c2cc(OC)c(OC)c(OC)c2)[C@@H]1OC` [rescinnnamine], the interaction with metformin (cancer test cell lines) is reported as “do not show significant interaction”.

`COC(=O)C1=CO[C@@H](C)[C@H]2CN3CCc4c([nH]c5ccccc45)[C@@H]3C[C@H]12` [ajmalicine] was tested, and the interaction with metformin (cancer test cell lines) was “do not show significant interaction”.

For `CN(C)C(=N)NC(=N)N` [metformin, 3-(diaminomethylidene)-1,1-dimethylguanidine hydrochloride], the “growth inhibition, combined versus each compound singly” value (K562 cells) was “only a marginal effect”, the “growth inhibition, combined versus each compound singly” value (Jurkat cells) was “only a marginal effect” and the “apoptotic induction (annexin V / PI)” value (OPM2 cells [5]) was “No apoptotic induction”. For the same compound, the “growth inhibition, combined versus each compound singly” value (RPMI8226 cells [6]) was “only a marginal effect”, the “growth inhibition, combined versus each compound singly” value (OPM2 cells [3]; OPM2) was “only a marginal effect” and the inhibition at 5000 µM (mouse mast cell line 6.5 [1]; Mus musculus, Mast cell, 72 h, 6.5 cells, metformin alone at 5 mM, 3 days (FIG. 1A), read-out: inhibition of growth) was 20%. The “apoptotic induction (annexin V / PI)” value (RPMI8226 cells [7]) was “No apoptotic induction” and the “body weight at sacrifice” value [8] was “no significant difference in body weight”.

With `O=C(CC(=O)C(F)(F)F)c1cccs1` [TTFA, 2-Thenoyltrifluoroacetone] the “synergistic killing with syrosingopine” value (mouse mast cell line 6.5 [1]; [10]) was “Synergistic killing”.
